What all share (assay): growth of human tumour cells (NCI), 48 h
The subject of test [1] is COLO 205 colon.
Test [2] concerns DU-145 prostate.
In test [3] the test system is EKVX NSCLC.
In test [4] the test system is HS 578T breast.
In test [5] the test system is LOX IMVI melanoma.
The test system of test [6] is MDA-MB-435.
The subject of test [7] is MOLT-4 leukemia.
Test [8] relates to NCI-H522 lung.
The test system of test [9] is OVCAR-3 ovarian.
Test [10] relates to RXF 393 renal.
For test [11], the system named is SF-295 CNS.
Test [12] has as its system SK-OV-3 ovarian.
Test [13] concerns SN12C renal.
Test [14] concerns SNB-19 CNS.
The subject of test [15] is U251 CNS.
Test [16] relates to UO-31 renal.

Here are results for nine compounds from PubChem BioAssay (NCI).

SMILES strings stand for the structures.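 The compound was tested at five concentrations on cells cultured in 96-well plates, with a 48-hour exposure period. The concentration for full growth arrest is given as TGI.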

Consider `Cc1ccc(C)n1-n1c(Cc2ccc(Cl)cc2)n[nH]c1=O`, for which the TGI in test [1], in test [2], in [3], in [4], in [5] and in test [6] was above 100 µM throughout. Moreover, the TGI in [7], in test [8], in test [9], in test [10], in test [11] and in [12] was above 100 µM throughout. The TGI in test [13], in [14], in test [15] and in test [16] was above 100 µM throughout.
Turning to `CC1NC(=O)c2c(-c3ccccc3)nn(-c3ccccc3)c2NC1=O` (stereo not drawn), the TGI in test [1], in test [2], in test [3], in test [4], in test [5] and in test [6] was above 100 µM in each case. Besides, the TGI in test [7], in test [8], in test [9], in test [10], in test [11] and in [12] was above 100 µM throughout. Also, the TGI in test [13], in test [14], in test [15] and in [16] was above 100 µM in each case.
For `CCOC(=O)c1sc2c(c1OC(=O)c1ccc(Cl)cc1Cl)c(=O)n(-c1ccccc1)c(=S)n2-c1ccccc1`, the TGI is 35.4 µM in [1]; above 100 µM in test [2]; 97.2 µM in [3]; above 100 µM in test [4]; above 81.1 µM in test [5]; above 100 µM in [6]. Besides, the TGI was 14.5 µM in test [7]; above 100 µM in test [8]; above 100 µM in [9]; above 100 µM in test [10]; above 100 µM in test [11]; above 81.2 µM in [12]. Further, the TGI in test [13] is 22.6 µM; in [14], above 100 µM; in test [15], above 56.1 µM; in test [16], above 100 µM.
For `CCN(CC)CCC1CCCCN1CC(=O)N1c2ccccc2NC(=O)CC1C` (stereo not drawn), the TGI in test [1], in [2], in test [3], in [4], in test [5] and in [6] was above 100 µM each time. Besides, the TGI in test [7], in [8], in test [9], in [10], in test [11] and in [12] was above 100 µM in each case. The TGI in [13], in test [14], in [15] and in test [16] was above 100 µM in each case.
Turning to `Oc1c(Nc2ccccc2)cc2c3c1N=NC=3CCN=2`, the TGI is above 100 µM in test [1]; above 100 µM in [2]; above 100 µM in test [3]; above 100 µM in [4]; 46.6 µM in test [5]; 31 µM in test [6]. The TGI was 87.3 µM in [7]; above 100 µM in [8]; above 100 µM in [9]; above 100 µM in [10]; above 100 µM in [11]; above 100 µM in [12]. Besides, the TGI in [13], in test [14], in test [15] and in [16] was above 100 µM throughout.
`N[C@@H]1c2c(Br)sc(Br)c2C(=O)[C@H]1Br`: the TGI in [1] was above 68 µM; in [2], above 100 µM; in test [3], above 88 µM; in test [4], above 100 µM; in test [5], 33.3 µM; in [6], above 61 µM. For the same compound, the TGI in [7] is above 46.1 µM; in test [8], 29 µM; in test [9], above 89.8 µM; in [10] it was 53.6 µM; in test [11], above 100 µM; in [12] it was above 100 µM. For the same compound, the TGI was 58.9 µM in test [13], above 74.6 µM in test [14], 60.1 µM in [15] and 55.6 µM in [16].
Turning to `CCOc1ccc(-n2c(=O)c3nn4c(=O)n(-c5ccc(OCC)cc5)c(=O)c4nn3c2=O)cc1`, the TGI in test [1], in [2], in [3], in test [4], in test [5] and in [6] was above 100 µM throughout. Besides, the TGI in [7], in test [8], in [9], in test [10], in [11] and in test [12] was above 100 µM in each case. Also, the TGI in test [13], in [14], in test [15] and in test [16] was above 100 µM each time.
As to `COc1cc(/C=C2\N=C(c3ccccc3)N(c3ccc4c(c3)Sc3cc(N5C(=O)/C(=C/c6cc(OC)c(OC)c(OC)c6)N=C5c5ccccc5)ccc3N4)C2=O)cc(OC)c1OC`, the TGI in test [1] is 47.4 µM; in test [2] it was above 100 µM; in [3] it was 54.6 µM; in test [4], 88.1 µM; in [5], 52 µM; in test [6], 33.6 µM. In addition, the TGI was above 100 µM in test [7]; 42.5 µM in [8]; 40.7 µM in test [9]; 46.1 µM in test [10]; 47.9 µM in [11]; 38.1 µM in test [12]. The TGI was 51 µM in [13], 39.8 µM in [14], 44.2 µM in test [15] and above 100 µM in test [16].
For the compound `Cc1ccc([N+](=O)[O-])cc1S(=O)(=O)Nc1ccc(C(=O)/C=C/c2ccccc2)cc1`, the TGI is 44.9 µM in test [1]; 29.5 µM in [2]; 33.5 µM in test [3]; above 100 µM in test [4]; 36.7 µM in test [5]; 36.6 µM in test [6]. Besides, the TGI in [7] was determined as 23 µM; in [8] it was 53 µM; in test [9], 30.7 µM; in test [10], 25 µM; in test [11], 44.1 µM; in [12] it was 95 µM. Further, the TGI was 43.2 µM in test [13], 39.6 µM in [14] and 40.7 µM in [16].
